What was measured:
Test in all cases: relative viability (nuclei count vs DMSO), 5 days (fraction); higher = more cells survive
MK-8033 + Olaparib = compound: Cn1cc(-c2cnc3ccc4ccc(CS(=O)(=O)NCc5ccccn5)cc4c(=O)c3c2)cn1 [MK-8033] + O=C(c1cc(Cc2n[nH]c(=O)c3ccccc23)ccc1F)N1CCN(C(=O)C2CC2)CC1 [Olaparib] (partner 8 µM)
Procedure, shortened: (§1)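 Five library-drug doses in √10 steps were combined with a fixed anchor-drug dose, or a single drug was given alone, by pin tool to lung cancer cell lines in 1536-well plates the day after seeding. Nuclei were stained and counted after 5 days. Relative viability is the nuclei count in treated wells over that in vehicle wells, taken as the median of duplicate plates.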

RU-SKI 43 + Dasatinib = compound: CC[C@@H](C)CNCC(=O)N1CCC2=C([C@@H]1COC3=CC=CC(=C3)C)C=CS2 [RU-SKI 43] + Cc1nc(Nc2ncc(C(=O)Nc3c(C)cccc3Cl)s2)cc(N2CCN(CCO)CC2)n1 [Dasatinib] (partner 0.075 µM)
Procedure, shortened: as §1

RU-SKI 43 + AZD7762 = compound: CC[C@@H](C)CNCC(=O)N1CCC2=C([C@@H]1COC3=CC=CC(=C3)C)C=CS2 [RU-SKI 43] + NC(=O)Nc1cc(-c2cccc(F)c2)sc1C(=O)N[C@H]1CCCNC1 [AZD7762] (partner 0.2 µM)
Procedure, shortened: as §1

Irinotecan + AZD7762 = compound: CCc1c2c(nc3ccc(OC(=O)N4CCC(N5CCCCC5)CC4)cc13)-c1cc3c(c(=O)n1C2)COC(=O)[C@]3(O)CC [Irinotecan] + NC(=O)Nc1cc(-c2cccc(F)c2)sc1C(=O)N[C@H]1CCCNC1 [AZD7762] (partner 0.2 µM)
Procedure, shortened: as §1

Row | Cell Line | relative viability (MK-8033 + Olaparib; first compound 0.02 µM) | relative viability (MK-8033 + Olaparib; first compound 0.06325 µM) | relative viability (MK-8033 + Olaparib; first compound 0.2 µM) | relative viability (MK-8033 + Olaparib; first compound 0.6325 µM) | relative viability (MK-8033 + Olaparib; first compound 2 µM) | relative viability (RU-SKI 43 + Dasatinib; first compound 0.1 µM) | relative viability (RU-SKI 43 + Dasatinib; first compound 0.3162 µM) | relative viability (RU-SKI 43 + Dasatinib; first compound 1 µM) | relative viability (RU-SKI 43 + Dasatinib; first compound 3.162 µM) | relative viability (RU-SKI 43 + Dasatinib; first compound 10 µM) | relative viability (RU-SKI 43 + AZD7762; first compound 0.1 µM) | relative viability (RU-SKI 43 + AZD7762; first compound 0.3162 µM) | relative viability (RU-SKI 43 + AZD7762; first compound 1 µM) | relative viability (RU-SKI 43 + AZD7762; first compound 3.162 µM) | relative viability (RU-SKI 43 + AZD7762; first compound 10 µM) | relative viability (Irinotecan + AZD7762; first compound 0.6325 µM) | relative viability (Irinotecan + AZD7762; first compound 2 µM) | relative viability (Irinotecan + AZD7762; first compound 6.325 µM) | relative viability (Irinotecan + AZD7762; first compound 20 µM)
1 | LC-2-ad | 0.701 | 0.678 | 0.673 | 0.702 | 0.727 | 0.587 | 0.634 | 0.77 | 0.605 | 0.552 | 0.899 | 0.945 | 0.95 | 0.896 | 0.857 | 0.446 | 0.567 | 0.272 | 0.17
2 | NCI-H2085 | 0.771 | 0.788 | 0.766 | 0.794 | 0.73 | 0.24 | 0.247 | 0.275 | 0.234 | 0.262 | 1.02 | 0.856 | 0.948 | 1.08 | 1.02 | 0.771 | 0.942 | 0.957 | 0.672

From the supplement of paper PMC10307832
